One block for each compound: values may come before it.
Key:
[1] = target: T1, GPR17 (Rattus norvegicus, UniProt Q09QM4); assay: cAMP assay: inhibition of forskolin-stimulated adenylyl cyclase activity in primary OPCs; assay type: cell-based
T1 construct: oligodendrocyte precursor cells (OPCs) natively expressing GPR17; endogenous in cells; host or cells: primary OPCs from postnatal day 2 Sprague-Dawley rat cortex
Protocol: (§1) The pharmacological profile of Asinex 1 was assessed in three different in vitro assays of increasing complexity in oligodendrocyte precursor cells (OPCs) natively expressing GPR17. Primary rat OPCs were cultured either alone or in the presence of mouse DRG neurons, according to a well-established protocol, previously described in Fumagalli et al. ([2015]). The endogenous GPR17 ligands UDP and LTD4 were selected as reference ligands. For more details on culture preparation and analysis, see Supplementary Information.
In order to determine the intracellular cAMP levels, primary purified OPCs were treated with Asinex 1 after 6 days in culture, when GPR17 expression reaches the maximum peak. A competitive protein binding method was used following the procedure previously described (Fumagalli et al., [2015]). Briefly, culture medium was removed, and cells were incubated at 37°C for 15 min with 400 μL of Neurobasal medium in the presence of the phosphodiesterase inhibitor Ro20-1724 (20 μM). The concentration-response curve of tested ligands was assessed by measuring their ability to inhibit cAMP accumulation stimulated by 10 μM forskolin. Asinex 1 was added to cells for 15 min at graded concentration (0.1–50 nM). […] Reactions were terminated by medium removal and addition of 200 μL of 0.4 N HCl. After 30 min, lysates were neutralized with 50 μL of 4 N KOH, and the suspension was centrifuged at 800× g for 5 min. For determination of cAMP, cAMP-binding protein isolated from bovine adrenal glands was incubated with [^3H]cAMP (2 nM), 50 μL of cell lysate or cAMP standard (0–16 pmol) at 4°C for 150 min, in a total volume of 300 μL. Bound radioactivity was separated by rapid filtration through GF/C glass fiber filters and washed twice with 4 mL of 50 mM Tris-HCl, pH 7.4. Radioactivity was measured by liquid scintillation spectrometry.

[2] = test system: OPC-DRG co-cultures; assay: Myelination assay in OPC-DRG co-cultures (Myelination Index); assay type: cell-based, rat OPCs, mouse DRG neurons; conditions: day 4 to day 15
Protocol: as §1
GPR17 ligands were tested both in primary OPCs culture and in OPC/DRG co-cultures to assess their pro-differentiation and pro-myelination effect, respectively. According to the type of culture, a specific protocol of treatment was set up. For primary OPCs, cells were seeded on 13 mm poly-D,L-ornithine-coated coverslips (2 × 10^4 cells/well) and maintained for 2 days in Neurobasal medium supplemented with B27 and proliferative factors (PDGF-BB and bFGF). Afterwards, OPC differentiation was induced by removing proliferative factors and by adding T3 and pharmacological treatments with Asinex 1 (1 or 10 nM) and LTD4 (200 nM), selected as reference compound, were performed the following day. After 48 h, cells were fixed for immunocytochemistry (ICC). For OPC/DRG co-cultures, Asinex 1 (10 nM) and UDP (100 μM) were added to cultures at day 4. […]

[3] = test system: primary OPCs; assay: OPC differentiation assay (MBP+ cells, immunocytochemistry); assay type: cell-based, rat; conditions: 48 h
Protocol: as §1
GPR17 ligands were tested both in primary OPCs culture and in OPC/DRG co-cultures to assess their pro-differentiation and pro-myelination effect, respectively. According to the type of culture, a specific protocol of treatment was set up. For primary OPCs, cells were seeded on 13 mm poly-D,L-ornithine-coated coverslips (2 × 10^4 cells/well) and maintained for 2 days in Neurobasal medium supplemented with B27 and proliferative factors (PDGF-BB and bFGF). Afterwards, OPC differentiation was induced by removing proliferative factors and by adding T3 and pharmacological treatments with Asinex 1 (1 or 10 nM) and LTD4 (200 nM), selected as reference compound, were performed the following day. After 48 h, cells were fixed for immunocytochemistry (ICC). For OPC/DRG co-cultures, Asinex 1 (10 nM) and UDP (100 μM) were added to cultures at day 4. The pharmacological treatment was repeated every 2 days up to day 15, when cells were fixed for ICC analysis. For more details, see Supplementary Information.
Oligodendrocyte precursor cell cultures
Primary oligodendrocyte precursor cells (OPCs) were isolated from mixed glial cultures prepared from postnatal day 2 Sprague-Dawley rat cortex by shaking cells on an orbital shaker at 200 rpm, as previously described (Fumagalli et al., 2015). OPCs were then collected and separated from microglia by incubation for 1 h in an uncoated Petri dish. […]

[4] = test system: GPR17; set-up: method as in earlier work; conditions: literature functional assay, ref Abbracchio et al., 2006, Ciana et al., Eberini et al., 2011; cited from earlier work

T1 sequence (Q09QM4 whole entry): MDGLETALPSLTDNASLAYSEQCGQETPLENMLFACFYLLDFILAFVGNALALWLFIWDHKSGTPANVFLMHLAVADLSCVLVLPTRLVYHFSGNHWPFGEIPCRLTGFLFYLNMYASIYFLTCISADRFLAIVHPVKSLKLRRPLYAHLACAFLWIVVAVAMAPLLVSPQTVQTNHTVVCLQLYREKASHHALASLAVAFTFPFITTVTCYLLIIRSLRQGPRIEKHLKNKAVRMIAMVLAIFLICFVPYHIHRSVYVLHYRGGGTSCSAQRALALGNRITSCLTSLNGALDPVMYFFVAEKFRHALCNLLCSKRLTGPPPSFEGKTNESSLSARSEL

EC50 ([1]; primary OPCs, 10 μM forskolin, 0.1–50 nM, read-out: EC50, inhibition of forskolin-stimulated cAMP formation): 6.5 ± 0.8 nM
pharmacological profile at GPR17 ([1]; primary rat OPCs, nucleotide binding site): full agonist
SMILES: COc1ccc(-n2c(SC(C)C(=O)Nc3ccccc3)nnc2-c2ccccc2OC)cc1 (stereo not drawn) [Asinex 1, 2-[[5-(2-methoxyphenyl)-4-(4-methoxyphenyl)-4H-1,2,4-triazol-3-yl]thio]-N-phenyl-propanamide]
Myelination Index (control 100%) ([2]; 10 nM): 240.3 ± 64.43%
percentage of MBP+ cells (control set to 100%) ([3]; 1 nM): 166.5 ± 16.21%
percentage of MBP+ cells (control set to 100%) ([3]; 10 nM): 158.3 ± 15.77%

IC50 ([1]; primary OPCs, constant ASN 1 concentration of 10 nM, read-out: IC50, antagonism of ASN 1-mediated inhibition of forskolin-stimulated adenylyl cyclase activity): 10.2 ± 0.8 nM
SMILES: CSCCNc1nc(SCCC(F)(F)F)nc2c1ncn2[C@@H]1O[C@H](COP(=O)(O)OP(=O)(O)C(Cl)(Cl)P(=O)(O)O)[C@@H](O)[C@H]1O [Cangrelor]
ratio between Cangrelor and Asinex 1 affinities [4]: 7

SMILES: CCCCC/C=C\C\C=C/C=C/C=C/[C@@H](SC[C@H](N)C(=O)NCC(=O)O)[C@@H](O)CCCC(=O)O [LTD4]
percentage of MBP+ cells (control set to 100%) ([3]; 200 nM): 171.0 ± 21.70%

SMILES: O=c1ccn([C@@H]2O[C@H](COP(=O)(O)OP(=O)(O)O)[C@@H](O)[C@H]2O)c(=O)[nH]1 [UDP]
Myelination Index (control 100%) ([2]; 100 μM): 193.9 ± 32.31%

From article PMC6966494, “Surface Plasmon Resonance as a Tool for Ligand Binding Investigation of Engineered GPR17 Receptor, a G Protein Coupled Receptor Involved in Myelination” (Frontiers in Chemistry, 2020)
